Experimental data as given in patent US6355674B1, “Aminotetralins as 5-HT1D α Agonists” (Eli Lilly and Company, priority 1997, dated 2002).
Counter-ions that a name gives are not always drawn.

| melting point | SMILES |
| --- | --- |
| 210 to 211 °C | CN(C)C1CCc2cccc(C3(O)CCCCC3)c2C1 (stereo not drawn) (as salt: hydrobromid) (hydrate or solvate) |
| 186 to 187 °C | CN(C)C1CCc2cccc(C3(O)CCCCCC3)c2C1 (stereo not drawn) (as salt: hydrobromid) (hydrate or solvate) |
| 180 to 181 °C (dec.) | Cc1cccc2c1C[C@H](N(C)C)CC2 (as salt: hydrochloride) |
| 147 to 148 °C | COCCOCc1cccc2c1CC(N(C)C)CC2 (stereo not drawn) (as salt: hydrochloride) |
| 158 to 159 °C | CN(C)C1CCc2cccc(C3CCCC3)c2C1 (stereo not drawn) (as salt: hydrochloride) |
| 158 to 160 °C | C/C=C(\CC)c1cccc2c1C[C@H](N(C)C)CC2 (as salt: hydrochloride) |
